Experimental findings from US8900819B2, “ADRB2 cancer markers” (The Regents of The University of Michigan, priority 2007, dated 2014) are described below.

The structures appear in SMILES notation. “Also recorded” adds a separate entry of the source.

Assay [1] deals with ADRB2 transcript. As to the kind of experiment: qRT-PCR of ADRB2 transcript after DZNep in breast and prostate cancer cell lines. Type of assay: cell-based. To be noted: 5 μM, 48 hrs; batch of breast and prostate cancer cell lines; FIG. 3K. As for the experimental part: (§1) The ADRB2 antagonist ICI 118,551, and agonist Isoproterenol was purchased from Sigma-Aldrich, and used at a working concentration of 1 μM, 10 μM or 100 μM. SAHA was obtained from Biovision Inc, dissolved in DMSO, and used at a working concentration of 1 μM. DZNep was used at 5 μM and cells were treated for 48 hrs before being harvested for RNA isolation.
(§2) SYBR green qRT-PCR was carried out according to standard protocols in triplicates (Kleer et al., 2003, supra). Samples were normalized to the mRNA level of the house-keeping gene GAPDH or RPL13A.
A general note: Quantitative PCR measures a nucleic acid by following its amplification.

Assay [2] has as its system RWPE cells. As to the kind of experiment: Modified basement membrane invasion assay in RWPE cells. Type of assay: cell-based. To be noted: noninvasive RWPE cells treated with 0, 1, or 10 μM; FIG. 4C. The method, then: as §1
(§3) Basement membrane matrix invasion assay was essentially performed as previously described (Kleer et al., 2003, supra). Briefly, warm serum free medium was mixed with Matrigel (Fisher Scientific) at 1:3 ratio, 300 μl of this Matrigel mixture was added into the center of each cell well inserts of the Chemicon 24-well plate (Chemicon), and allowed to solidify at room temperature for 1-2 hrs. Cells were trypsinized and resuspended in serum-free medium. Approximately 1×10^5 cells in 300 μl of serum free medium were placed into each insert, the upper chamber, whereas 500 μl of full medium was added to the lower chamber. Cells were treated with corresponding drug for 10 min prior to be placed into invasion chambers. Cells were then grown in the upper chamber for 48 hrs. The non-invading cells inside the insert were removed and the insert were stained for invaded cells on the lower surface of the membrane. The stained cells were then counted using a microscope and images taken.

In assay [3] the test system is RWPE benign prostate epithelial cells. As to the kind of experiment: Immunoblot of EMT biomarkers and cell adhesion molecules in RWPE cells. In kind it is cell-based. To be noted: FIG. 4F. The method, then: as §1
Cell extracts were separated by SDS-PAGE and blotted onto nitrocelllular membranes, immunoblotted with antibodies and visualized using ECL-plus (Amercham Bioscience). The following antibodies were used: ADRB2 (Abcam), β-tubulin (Santa Cruz), EZH2 (BD Bioscience). The anti-ADRB2 antibody usually gives a major band of predicted size (46.5 kDa). However, some lots of this antibody may give an extra, weaker band about 5 kDa above the predicted band.
A general note: Immunoblotting shows a protein as a band on a membrane.

The test system of assay [4] is DU145 prostate cancer cells. As to the kind of experiment: Modified basement membrane invasion assay in DU145 cells. Type of assay: cell-based. The method, then: as §3, with “The ADRB2 antagonist ICI 118,551, and agonist Isoproterenol was purchased from Sigma-Aldrich, and used at a working concentration of 1 μM, 10 μM or 100 μM. SAHA was obtained from Biovision Inc, dissolved in DMSO, and used at a working concentration of 1 μM. DZNep was used at 5 μM and cells were treated for 48 hrs before being harvested for RNA isolation. Basement” for “Basement”

The test system of assay [5] is RWPE-shADRB2 cells. As to the kind of experiment: Modified basement membrane invasion assay in RWPE-shADRB2 cells. In kind it is cell-based. The settings on record: RWPE-shADRB2 cells treated with 0, 10, or 100 μM. As for the experimental part:
The ADRB2 antagonist ICI 118,551, and agonist Isoproterenol was purchased from Sigma-Aldrich, and used at a working concentration of 1 μM, 10 μM or 100 μM. SAHA was obtained from Biovision Inc, dissolved in DMSO, and used at a working concentration of 1 μM. DZNep was used at 5 μM and cells were treated for 48 hrs before being harvested for RNA isolation. EZH2 adenovirus infection and RNA interference were performed as described (Kleer et al., Proc Natl Acad Sci USA 100, 11606-11611 2003; Varambally et al., Cancer Cell 8, 393-406 2002). RWPE cells with stable ADRB2 knockdown were generated by transfection with ADRB2 shRNA constructs (Open Biosystems, Huntsville, Ala.) and selection with puromycin. DU145 cell lines with stable EZH2 knockdown were generated using EZH2 shRNA expressing constructs (Open Biosystems). Basement membrane matrix invasion assay was essentially performed as previously described (Kleer et al., 2003, supra). Briefly, warm serum free medium was mixed with Matrigel (Fisher Scientific) at 1:3 ratio, 300 μl of this Matrigel mixture was added into the center of each cell well inserts of the Chemicon 24-well plate (Chemicon), and allowed to solidify at room temperature for 1-2 hrs. Cells were trypsinized and resuspended in serum-free medium. […] The stained cells were then counted using a microscope and images taken.

In assay [6] the test system is DU145 prostate cancer cells. As to the kind of experiment: Murine prostate tumor xenograft model (DU145). Type of assay: in vivo. To be noted: nude mice, daily intraperitoneal injection 400 μg/day or 800 ug/day vs PBS; FIG. 5B. As for the experimental part:
All procedures involving mice were approved by the University Committee on Use and Care of Animals of the University of Michigan. Male nude athymic BALB/c nu/nu mice 5-week-old (Charles River Laboratory, Wilmington, Mass.) were used for examining the tumorigenicity. […] To evaluate the role of β-adrenergic signaling in tumor formation, DU145 cell was propagated, and treated with PBS or 10 μM Isoproterenol at 24 hrs prior to harvest. Cells were then harvested and suspended in a 0.1 ml PBS with or without treatment of 10 μM Isoproterenol. A total of 15 mice (n=5 per group) were each implanted with 5×10^6 DU145 cells into the dorsal flank subcutaneously. Treatment started 24 hrs after implantation. Each group was administered daily by intraperitoneal injection with either PBS or Isoproterenol (at 400 μg/day or 800 μg/day). Tumor size was measured every week and tumor volumes were estimated using the formula (n/6)(L×W2), where L=length of tumor and W=width.

Assay [7] concerns ADRB2 transcript. As to the kind of experiment: qRT-PCR of ADRB2 transcript after SAHA time course. The settings on record: time course of SAHA treatment; FIG. 3J. Type of assay: cell-based. As for the experimental part: For ChIP and qRT-PCR analysis, DU145 cells were treated with 0.5 μM of SAHA for 30 min, 2, 6, 12 and 24 hrs prior to harvest.
as §2

The subject of assay [8] is ADRB2 promoter. As to the kind of experiment: ChIP of endogenous PRC2 complex, 3mH3K27 and acetylated H3 at the ADRB2 promoter. Type of assay: cell-based. The settings on record: FIG. 3H-I. The method, then: ChIP was performed according to published protocols with slight modifications (Boyd et al., Proc Natl Acad Sci USA 95, 13887-13892 1998). Briefly, formaldehyde was added directly to the cultured cells to a final concentration of 1%. For metastasis tissues, samples were first chopped into small pieces with a razor blade and transferred into 5-10 ml PBS before adding formaldehyde. Cells were rotated at room temperature for 10 min. The crosslinking was stopped by 1/20V of 2.5M Glycine and the cells were washed with 1×PBS and harvested in 1×PBS with proteinase inhibitors. Metastasis tissue samples were further disaggregated using a tissue homogenizer. The cells were then pelleted and resuspended in cell lysis buffer containing protease inhibitors. After incubation in cell lysis buffer for 10 min, the samples were pelleted, resuspended in nuclei lysis buffer and sonicated to chromatins with an average size of 500 bp. The chromatins were precleared using Salmon sperm DNA/Protein A Agarose-50% flurry and incubated with specific antibodies overnight. […] The next day, the antibody-bound chromatin was pooled down using protein A/agarose, washed extensively, and reverse-crosslinked. Immunoprecipitated DNA and whole cell extract DNA were purified by treatment with RNase A, proteinase K and purified using Qiaquick PCR purification kit (Qiagen, Valencia, Calif.). The purified DNA was used for PCR analysis of enrichment. Purified DNA was blunted and ligated to linkers and amplified by a two-stage ligation-mediated PCR (LM-PCR) protocol (Lee et al., Cell 125, 301-313 2006) to generate enough chromatins for PCR analysis of multiple target genes or for hybridization to promoter arrays. Equal amount of amplified input and ChIP-enriched chromatins were subjected to PCR testing for enrichment of target gene promoters. For ChIP and qRT-PCR analysis, DU145 cells were treated with 0.5 μM of SAHA for 30 min, 2, 6, 12 and 24 hrs prior to harvest.

Assay [9] has as its system ADRB2 promoter. As to the kind of experiment: ChIP of ectopic Myc-EZH2 at the ADRB2 promoter in H16N2 cells. Type of assay: cell-based, human. To be noted: H16N2 cells with EZH2 adenovirus; FIG. 3F. As for the experimental part: ChIP was performed according to published protocols with slight modifications (Boyd et al., Proc Natl Acad Sci USA 95, 13887-13892 1998). Briefly, formaldehyde was added directly to the cultured cells to a final concentration of 1%. For metastasis tissues, samples were first chopped into small pieces with a razor blade and transferred into 5-10 ml PBS before adding formaldehyde. Cells were rotated at room temperature for 10 min. The crosslinking was stopped by 1/20V of 2.5M Glycine and the cells were washed with 1×PBS and harvested in 1×PBS with proteinase inhibitors. Metastasis tissue samples were further disaggregated using a tissue homogenizer. The cells were then pelleted and resuspended in cell lysis buffer containing protease inhibitors. After incubation in cell lysis buffer for 10 min, the samples were pelleted, resuspended in nuclei lysis buffer and sonicated to chromatins with an average size of 500 bp. The chromatins were precleared using Salmon sperm DNA/Protein A Agarose-50% flurry and incubated with specific antibodies overnight. Antibodies used in this study include EZH2 (BD Bioscience), EED (Upstate), SUZ12 (Abeam), trimethylated H3K27 (Upstate), Acetyl-H3K27 (Upstate), Myc (Abeam), and IgG control (Santa Cruz). The next day, the antibody-bound chromatin was pooled down using protein A/agarose, washed extensively, and reverse-crosslinked. […]

With `Nc1nccc2c1ncn2C1C=C(CO)C(O)C1O` (centres unmarked) [DZNep], in assay [1], the ADRB2 transcript entry is listed as “Marked up-regulation; also recorded: strong induction (de-repression) of ADRB2 in all cell lines tested”.
On to `Cc1ccc(OCC(O)C(C)NC(C)C)c2c1CCC2` (centres unmarked) [ICI 118,551], for which, in assay [2], the cell invasion entry was “leads to increased invasion; also recorded: significantly increased invasion”. For the same compound, the “expression of EMT biomarkers and cell adhesion molecules” value in assay [3] is “regulates the expression of EMT biomarkers and cell adhesion molecules; also recorded: recaptured the expressional changes in RWPE-shADRB2 cells”.
For `CC(C)NCC(O)c1ccc(O)c(O)c1` (centres unmarked) [Isoproterenol], the cell invasion result in assay [4] (DU145 cells treated with 0, 10, or 100 μM) is “inhibits cell invasion”; in assay [4] (DU145 cells treated with 0, 10, or 100 μM, listed as isoproterenol), “significantly reduced invasion”; in assay [4] (PCA model system, cell line not given), “decreased cell invasion”; in assay [5], “inhibits cell invasion”; in assay [5] (listed as isoproterenol), “significantly reduced invasion”. Besides, in [6], the xenograft tumor size result is “significantly (two-sample t-test, p=0.006) smaller tumors”.
Take `O=C(CCCCCCC(=O)Nc1ccccc1)NO` [SAHA]: the ADRB2 transcript entry in [7] is “up-regulated; also recorded: upregulation of ADRB2 transcripts”. In addition, in assay [8], the “H3K27 trimethylation at the ADRB2 promoter” value is “marked reduction of PRC2 binding and consequent H3K27 trimethylation”; the “acetylated H3 at the ADRB2 promoter” value is listed as “accumulation of acetylated H3”. Further, the “PRC2 binding at the ADRB2 promoter” value in [8] (endogenous PRC2) is listed as “sensitive to the HDAC inhibitor SAHA; also recorded: marked reduction of PRC2 binding”. In assay [9], the “recruitment of Myc-EZH2 to the ADRB2 promoter” value was “this binding being sensitive to SAHA”.
